The values below come from US8138168B1 (Takeda Pharmaceutical Company Limited, priority 2007, dated 2012).

Structures are written as SMILES. Some results are limits rather than exact numbers.

One test addresses T1, Recombinant human renin (Homo sapiens, UniProt P00797).
T1 construct: isolate the active form (residues 67-406); made in house; host or cells: FreeStyle 293-F cells (transient expression of pcDNA3.1(+)/hREN)
T1 sequence (P00797 67-406): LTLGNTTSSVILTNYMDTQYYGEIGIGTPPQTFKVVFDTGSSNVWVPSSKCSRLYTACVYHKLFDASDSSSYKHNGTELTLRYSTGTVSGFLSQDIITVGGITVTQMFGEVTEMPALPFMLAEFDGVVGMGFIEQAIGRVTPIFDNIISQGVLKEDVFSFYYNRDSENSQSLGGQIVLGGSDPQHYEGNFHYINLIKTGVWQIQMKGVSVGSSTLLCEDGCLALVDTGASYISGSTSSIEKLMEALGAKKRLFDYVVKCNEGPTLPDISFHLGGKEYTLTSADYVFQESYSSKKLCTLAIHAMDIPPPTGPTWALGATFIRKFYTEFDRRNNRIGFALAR
Put plainly: In vitro enzymatic activity assay of renin inhibitors (fluorogenic peptide substrate). Type of test: biochemical. The following applies: isomers separated by preparative SFC; more or less active isomer as renin inhibitor. In a few lines: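 Enzyme: recombinant human renin, 3 nM final, 10 min compound pre-incubation at 37 °C; buffer 50 mM Hepes pH 7.4 with 0.1 mg/mL BSA or extra 2% BSA; 5% DMSO.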
In the case of `Cc1nc2ccccc2n1[C@H]1CCCN(C(=O)C[C@H](N)Cc2ccc3ccccc3c2)C1` [Compound 244, (R)-3-amino-1-((S)-3-(2-methyl-1H-benzo[d]imidazol-1-yl)piperidin-1-yl)-4-(naphthalen-2-yl)butan-1-one], the “Eutomer / distomer designation of the separated stereoisomers” value (“Eutomer / distomer designation” for short) was “Eutomer”.

As to `Cc1nc2ccccc2n1[C@@H]1CCCN(C(=O)C[C@H](N)Cc2ccc3ccccc3c2)C1` [Compound 245, (R)-3-amino-1((R)-3-(2-methyl-1H-benzo[d]imidazol-1-yl)piperidin-1-yl)-4-(naphthalen-2-yl)butan-1-one], the “Eutomer / distomer designation” value is “Distomer”.

Consider `COCCCn1c([C@]2(O)CCCN(C(=O)C[C@H](N)Cc3ccc(Cl)cc3)C2)nc2ccccc21` [Compound 247, (R)-3-amino-4-(4-chlorophenyl)-1-((S)-3-hydroxy-3-(1-(3-methoxypropyl)-1H-benzo[d]imidazol-2-yl)piperidin-1-yl)butan-1-one], for which the “Eutomer / distomer designation” value is recorded as “Distomer”.

The same test, now with this note: read-out: IC50 of Exemplified Compounds Against Renin.
`COCCCn1c([C@@H]2CCCN(C(=O)C[C@H](N)Cc3ccc(-n4ccc5ccccc5c4=O)cc3)C2)nc2ccccc21` [Compound 229, 2-(4-((R)-2-amino-4-((R)-3-(1-(3-methoxypropyl)-1H-benzo[d]imidazol-2-yl)piperidin-1-yl)-4-oxobutyl)phenyl)isoquinolin-1(2H)-one]: the IC50 is less than 100 nM.

Regarding `COCCCn1c([C@@H]2CCCN(C(=O)C[C@H](N)Cc3ccc(N4CCN(c5ccccc5)CC4)cc3)C2)nc2ccccc21` [Compound 231, (R)-3-amino-1((R)-3-(1-(3-methoxypropyl)-1H-benzo[d]imidazol-2-yl)piperidin-1-yl)-4-(4-(4-phenylpiperazin-1-yl)phenyl)butan-1-one], the IC50 lay in the range of 100 to 1000 nM.

`COCCCn1c([C@@H]2CCCN(C(=O)C[C@H](N)Cc3ccc(N4CCN(C(C)=O)CC4)cc3)C2)nc2ccccc21` [Compound 232, (R)-4-(4-(4-acetylpiperazin-1-yl)phenyl)-3-amino-1-((R)-3-(1-(3-methoxypropyl)-1H-benzo[d]imidazol-2-yl)piperidin-1-yl)butan-1-one]: the IC50 is 100 to 1000 nM.

As to `COCCCn1c([C@@H]2CCCN(C(=O)C[C@H](N)Cc3ccc(N4CCN(c5ccccc5)C(=O)C4)cc3)C2)nc2ccccc21` [Compound 233, 4-(4-((R)-2-amino-4-((R)-3-(1-(3-methoxypropyl)-1H-benzo[d]imidazol-2-yl)piperidin-1-yl)-4-oxobutyl)phenyl)-1-phenylpiperazin-2-one], the IC50 lay in the range of 100 to 1000 nM.

Consider `COCCCn1c([C@@H]2CCCN(C(=O)C[C@H](N)Cc3ccc(N4CCC(O)CC4)cc3)C2)nc2ccccc21` [Compound 234, (R)-3-amino-4-(4-(4-hydroxypiperidin-1-yl)phenyl)-1-((R)-3-(1-(3-methoxypropyl)-1H-benzo[d]imidazol-2-yl)piperidin-1-yl)butan-1-one], for which the IC50 is greater than 1000 nM.

In the case of `COCCCn1c([C@@H]2CCCN(C(=O)C[C@H](N)Cc3ccc(N4CCC(CO)CC4)cc3)C2)nc2ccccc21` [Compound 235, (R)-3-amino-4-(4-(4-(hydroxymethyl)piperidin-1-yl)phenyl)-1-((R)-3-(1-(3-methoxypropyl)-1H-benzo[d]imidazol-2-yl)piperidin-1-yl)butan-1-one], the IC50 was 100 to 1000 nM.

For `COCCCn1c([C@@H]2CCCN(C(=O)C[C@H](N)Cc3ccc(N4CCC(CCO)CC4)cc3)C2)nc2ccccc21` [Compound 236, (R)-3-amino-4-(4-(4-(2-hydroxyethyl)piperidin-1-yl)phenyl)-1-((R)-3-(1-(3-methoxypropyl)-1H-benzo[d]imidazol-2-yl)piperidin-1-yl)butan-1-one], the half-inhibitory concentration (IC50) is less than 100 nM.

In the case of `COCCCn1c([C@@H]2CCCN(C(=O)C[C@H](N)Cc3ccc(N4CCC(C(=O)OC)CC4)cc3)C2)nc2ccccc21` [Compound 237, methyl 1-(4-((R)-2-amino-4-((R)-3-(1-(3-methoxypropyl)-1H-benzo[d]imidazol-2-yl)ppiperidin-1-yl)-4-oxobutyl)phenyl)piperidine-4-carboxylate], the IC50 lay within 100 to 1000 nM.

For `COCCCn1c([C@@H]2CCCN(C(=O)C[C@H](N)Cc3ccc(Oc4ccccc4)cc3)C2)nc2ccccc21` [Compound 238, (R)-3-amino-1((R)-3-(1-(3-methoxypropyl)-1H-benzo[d]imidazol-2-yl)piperidin-1-yl)-4-(4-phenoxyphenyl)butan-1-one], the IC50 is less than 100 nM.

As for `CC(=O)NCCn1c([C@@H]2CCCN(C(=O)C[C@H](N)Cc3ccc4ccccc4c3)C2)nc2ccccc21` [Compound 239, N-(2-(2-((R)-1((R)-3-amino-4-(naphthalen-2-yl)butanoyl)piperidin-3-yl)-1H-benzo[d]imidazol-1-yl)ethyl)acetamide], the IC50 is 100 to 1000 nM.

Take `COCCCn1c([C@@H]2CCCN(C(=O)[C@H](Cc3ccccc3)C(N)Cc3ccc(Cl)cc3)C2)nc2ccccc21` (stereo partly drawn) [Compound 240, (R)-3-amino-2-benzyl-4-(4-chlorophenyl)-1-((R)-3-(1-(3-methoxypropyl)-1H-benzo[d]imidazol-2-yl)piperidin-1-yl)butan-1-one]: the IC50 is greater than 1000 nM.

As to `COCCCn1c([C@@H]2CCCN(C(=O)C[C@H](N)Cc3ccc4ccccc4c3)C2)nc2c1CCCC2` [Compound 241, (R)-3-amino-1((R)-3-(1-(3-methoxypropyl)-4,5,6,7-tetrahydro-1H-benzo[d]imidazol-2-yl)piperidin-1-yl)-4-(naphthalen-2-yl)butan-1-one], the IC50 lay in the range of 100 to 1000 nM.

Turning to `COCCCn1c(C(C)(C)C)cnc1C1(O)CCCN(C(=O)C[C@H](N)Cc2ccc(-c3ccc(C(=O)OC)cc3)cc2)C1` (stereo partly drawn) [Compound 242, methyl 4′-((2R)-2-amino-4-(3-(5-tert-butyl-1-(3-methoxypropyl)-1H-imidazol-2-yl)-3-hydroxypiperidin-1-yl)-4-oxobutyl)biphenyl-4-carboxylate], the concentration for half-maximal inhibition (IC50) is greater than 1000 nM.

Consider `COCCCc1nc2ccccc2n1[C@@H]1CCCN(C(=O)C[C@H](N)Cc2ccc3ccccc3c2)C1` [Compound 243, (R)-3-amino-1-((R)-3-(2-(3-methoxypropyl)-1H-benzo[d]imidazol-1-yl)piperidin-1-yl)-4-(naphthalen-2-yl)butan-1-one], for which the IC50 was greater than 1000 nM.

Consider `Cc1nc2ccccc2n1[C@H]1CCCN(C(=O)C[C@H](N)Cc2ccc3ccccc3c2)C1` [Compound 244, (R)-3-amino-1-((S)-3-(2-methyl-1H-benzo[d]imidazol-1-yl)piperidin-1-yl)-4-(naphthalen-2-yl)butan-1-one], for which the IC50 is greater than 1000 nM.

For `Cc1nc2ccccc2n1[C@@H]1CCCN(C(=O)C[C@H](N)Cc2ccc3ccccc3c2)C1` [Compound 245, (R)-3-amino-1((R)-3-(2-methyl-1H-benzo[d]imidazol-1-yl)piperidin-1-yl)-4-(naphthalen-2-yl)butan-1-one], the IC50 was greater than 1000 nM.

As to `COCCCn1c(C2CC(C)CN(C(=O)C[C@H](N)Cc3ccc4ccccc4c3)C2)nc2ccccc21` (stereo partly drawn) [Compound 246, (3R)-3-amino-1-(3-(1-(3-methoxypropyl)-1H-benzo[d]imidazol-2-yl)-5-methylpiperidin-1-yl)-4-(naphthalen-2-yl)butan-1-one], the 50% inhibitory concentration (IC50) is greater than 1000 nM.

Consider `COCCCn1c([C@]2(O)CCCN(C(=O)C[C@H](N)Cc3ccc(Cl)cc3)C2)nc2ccccc21` [Compound 247, (R)-3-amino-4-(4-chlorophenyl)-1-((S)-3-hydroxy-3-(1-(3-methoxypropyl)-1H-benzo[d]imidazol-2-yl)piperidin-1-yl)butan-1-one], for which the IC50 is greater than 1000 nM.

Turning to `COCCCn1c([C@@]2(O)CCCN(C(=O)C[C@H](N)Cc3ccc(Cl)cc3)C2)nc2ccccc21` [Compound 248, (R)-3-amino-4-(4-chlorophenyl)-1((R)-3-hydroxy-3-(1-(3-methoxypropyl)-1H-benzo[d]imidazol-2-yl)piperidin-1-yl)butan-1-one], the IC50 is greater than 1000 nM.

Consider `COCCCn1c([C@@H]2CCCN(C(=O)C[C@H](N)CNC(=O)c3ccc4ccccc4c3)C2)nc2ccccc21` [Compound 249, N-((S)-2-amino-4-((R)-3-(1-(3-methoxypropyl)-1H-benzo[d]imidazol-2-yl)piperidin-1-yl)-4-oxobutyl)-2-naphthamide], for which the IC50 is less than 100 nM.

Consider `COCCCn1c([C@@H]2CCCN(C(=O)C[C@H](N)CNC(=O)Nc3ccccc3OC)C2)nc2ccccc21` [Compound 250, 1-((S)-2-amino-4-((R)-3-(1-(3-methoxypropyl)-1H-benzo[d]imidazol-2-yl)piperidin-1-yl)-4-oxobutyl)-3-(2-methoxyphenyl)urea], for which the half-inhibitory concentration (IC50) was less than 100 nM.

On to `COCCCn1c([C@@H]2CCCN(C(=O)C[C@H](N)CNC(=O)c3ccc(-c4ccccc4)o3)C2)nc2ccccc21` [Compound 251, N-((S)-2-amino-4-((R)-3-(1-(3-methoxypropyl)-1H-benzo[d]imidazol-2-yl)piperidin-1-yl)-4-oxobutyl)-5-phenylfuran-2-carboxamide], for which the IC50 is less than 100 nM.

Consider `COCCCn1c([C@@H]2CCCN(C(=O)C[C@H](N)CNC(=O)c3ccc(-c4ccccc4)s3)C2)nc2ccccc21` [Compound 252, N-((S)-2-amino-4-((R)-3-(1-(3-methoxypropyl)-1H-benzo[d]imidazol-2-yl)piperidin-1-yl)-4-oxobutyl)-5-phenylthiophene-2-carboxamide], for which the IC50 is less than 100 nM.

With `COCCCn1c([C@@H]2CCCN(C(=O)C[C@H](N)CNC(=O)Nc3ccc(OC)cc3)C2)nc2ccccc21` [Compound 253, 1-((S)-2-amino-4-((R)-3-(1-(3-methoxypropyl)-1H-benzo[d]imidazol-2-yl)piperidin-1-yl)-4-oxobutyl)-3-(4-methoxyphenyl)urea], the IC50 is less than 100 nM.

As for `COCCCn1c([C@@H]2CCCN(C(=O)C[C@H](N)CNC(=O)Nc3cccc(OC)c3)C2)nc2ccccc21` [Compound 254, 1-((S)-2-amino-4-((R)-3-(1-(3-methoxypropyl)-1H-benzo[d]imidazol-2-yl)piperidin-1-yl)-4-oxobutyl)-3-(3-methoxyphenyl)urea], the 50% inhibitory concentration (IC50) was less than 100 nM.

Take `COCCCn1c([C@@H]2CCCN(C(=O)C[C@H](N)CNC(=O)Nc3ccc(Cl)c(Cl)c3)C2)nc2ccccc21` [Compound 255, 1-((S)-2-amino-4-((R)-3-(1-(3-methoxypropyl)-1H-benzo[d]imidazol-2-yl)piperidin-1-yl)-4-oxobutyl)-3-(3,4-dichlorophenyl)urea]: the IC50 is less than 100 nM.
